Experimental data: ChEMBL document CHEMBL3414456, “Pentacyclic triterpene derivatives possessing polyhydroxyl ring A inhibit gram-positive bacteria growth by regulating metabolism and virulence genes expression” (2015)
Converted amounts (≈) assume the structure as drawn. The source made the active and inactive calls. No cut-off for these calls is given here.

Assays:
Bacillus spizizenii [1] = test: Antibacterial activity against Bacillus subtilis ATCC 6633 assessed as growth inhibition at 100 uM after 24 hrs by turbidimetric analysis; format: functional; conditions: for inhibition of growth at 100 µM: ATCC 6633, 24 h, read-out: GI
Staphylococcus aureus [2] = test: Antibacterial activity against Staphylococcus aureus ATCC 25923 assessed as growth inhibition at 100 uM after 24 hrs by turbidimetric analysis; format: functional; conditions: for inhibition of growth at 100 µM: ATCC 25923, 24 h, read-out: GI
Streptomyces scabiei [3] = test: Antibacterial activity against Streptomyces scabiei CGMCC4.7610246 assessed as growth inhibition at 100 uM after 36 hrs by turbidimetric analysis; format: functional, organism-based
Escherichia coli [4] = test: Antibacterial activity against Escherichia coli assessed as growth inhibition at 100 uM after 24 hrs by turbidimetric analysis; format: functional, organism-based
Ralstonia solanacearum = test: Antibacterial activity against Ralstonia solanacearum assessed as growth inhibition at 100 uM after 24 hrs by turbidimetric analysis; format: functional, organism-based
Staphylococcus aureus [5] = test: Antibacterial activity against Staphylococcus aureus after 24 hrs; format: functional
Bacillus spizizenii [6] = test: Antibacterial activity against Bacillus subtilis ATCC 6633 assessed as growth inhibition after 2 to 24 hrs; format: functional, organism-based
Streptomyces scabiei [7] = test: Downregulation of p450 gene expression in Streptomyces scabiei CGMCC4.7610246 at 0.5 x MIC by Q-RT-PCR analysis relative to control; format: functional, organism-based
Staphylococcus aureus [8] = test: Upregulation of fmhB gene expression in Staphylococcus aureus ATCC 25923 at 0.5 x MIC by Q-RT-PCR analysis relative to control; format: functional, organism-based
Staphylococcus aureus [9] = test: Upregulation of seaR gene expression in Staphylococcus aureus ATCC 25923 at 0.5 x MIC by Q-RT-PCR analysis relative to control; format: functional, organism-based
Staphylococcus aureus [10] = test: Upregulation of hla gene expression in Staphylococcus aureus ATCC 25923 at 0.5 x MIC by Q-RT-PCR analysis relative to control; format: functional, organism-based
Streptomyces scabiei [11] = test: Downregulation of murX gene expression in Streptomyces scabiei CGMCC4.7610246 at 0.5 x MIC by Q-RT-PCR analysis relative to control; format: functional, organism-based
Streptomyces scabiei [12] = test: Downregulation of tomA gene expression in Streptomyces scabiei CGMCC4.7610246 at 0.5 x MIC by Q-RT-PCR analysis relative to control; format: functional, organism-based
Streptomyces scabiei [13] = test: Downregulation of necl gene expression in Streptomyces scabiei CGMCC4.7610246 at 0.5 x MIC by Q-RT-PCR analysis relative to control; format: functional, organism-based
Streptomyces scabiei [14] = test: Downregulation of txtA gene expression in Streptomyces scabiei CGMCC4.7610246 at 0.5 x MIC by Q-RT-PCR analysis relative to control; format: functional, organism-based
Streptomyces scabiei [15] = test: Downregulation of txtC gene expression in Streptomyces scabiei CGMCC4.7610246 at 0.5 x MIC by Q-RT-PCR analysis relative to control; format: functional, organism-based
Bacillus spizizenii [16] = test: Antibacterial activity against Bacillus subtilis ATCC 6633 assessed as growth inhibition after 24 hrs by turbidimetric analysis; format: functional; conditions: ATCC 6633, 24 h
Staphylococcus aureus [17] = test: Antibacterial activity against Staphylococcus aureus ATCC 25923 assessed as growth inhibition after 24 hrs by turbidimetric analysis; format: functional; conditions: ATCC 25923, 24 h
Streptomyces scabiei [18] = test: Antibacterial activity against Streptomyces scabiei CGMCC4.7610246 assessed as growth inhibition after 36 hrs by turbidimetric analysis; format: functional; conditions: CGMCC4.7610246, 36 h
Staphylococcus aureus [19] = test: Potency index, ratio of ampicillin MIC to compound MIC for Staphylococcus aureus ATCC 25923; format: functional
Staphylococcus aureus [20] = test: Antibacterial activity against Staphylococcus aureus ATCC 25923 assessed as growth inhibition after 2 to 24 hrs; format: functional, organism-based
Staphylococcus aureus [21] = test: Downregulation of lytM gene expression in Staphylococcus aureus ATCC 25923 at 0.5 x MIC by Q-RT-PCR analysis relative to control; format: functional, organism-based
Bacillus spizizenii [22] = test: Upregulation of ykuD gene expression in Bacillus subtilis ATCC 6633 at 0.5 x MIC by Q-RT-PCR analysis relative to control; format: functional
Bacillus spizizenii [23] = test: Downregulation of lytF gene expression in Bacillus subtilis ATCC 6633 at 0.5 x MIC by Q-RT-PCR analysis relative to control; format: functional, organism-based
Bacillus spizizenii [24] = test: Downregulation of mmgD gene expression in Bacillus subtilis ATCC 6633 at 0.5 x MIC by Q-RT-PCR analysis relative to control; format: functional, organism-based
Bacillus spizizenii [25] = test: Downregulation of yhdT gene expression in Bacillus subtilis ATCC 6633 at 0.5 x MIC by Q-RT-PCR analysis relative to control; format: functional, organism-based
Bacillus spizizenii [26] = test: Downregulation of yqhB gene expression in Bacillus subtilis ATCC 6633 at 0.5 x MIC by Q-RT-PCR analysis relative to control; format: functional, organism-based
Staphylococcus aureus [27] = test: Downregulation of narG gene expression in Staphylococcus aureus ATCC 25923 at 0.5 x MIC by Q-RT-PCR analysis relative to control; format: functional, organism-based
Staphylococcus aureus [28] = test: Antibacterial activity against […] Staphylococcus aureus ATCC 29213 by serial microplate method; format: functional
Escherichia coli [29] = test: Antibacterial activity against Escherichia coli ATCC 25922 by serial microplate method; format: functional

SMILES	growth inhibition (GI) (Bacillus spizizenii [1])	growth inhibition (GI) (Staphylococcus aureus [2])	growth inhibition (GI) (Streptomyces scabiei [3])	Activity (Staphylococcus aureus [8])	Activity (Staphylococcus aureus [9])	Activity (Staphylococcus aureus [10])	inhibition of growth at 100 µM (Bacillus spizizenii [1]) [%]	inhibition of growth at 100 µM (Staphylococcus aureus [2]) [%]	MIC (Bacillus spizizenii [16]) [µM]	MIC (Staphylococcus aureus [17]) [µM]	MIC (Streptomyces scabiei [18]) [µM]	other results
C[C@H]1[C@H](C)CC[C@]2(C(=O)OCc3ccccc3)CC[C@]3(C)C(=CC[C@@H]4[C@@]5(C)[C@H]6O[C@H]6[C@H](O)C(C)(C)[C@@H]5CC[C@]43C)[C@H]12	Active	Active	Active									growth inhibition (GI) (Escherichia coli [4]): Active; growth inhibition (GI) (Ralstonia solanacearum): Active
C[C@@H](O)[C@H]1C(=O)N2C(C(=O)O)=C(SCCNC=N)C[C@H]12 [IMIPENEM ANHYDROUS]												inhibition zone (IZ) (Staphylococcus aureus [5]): 33 mm
C[C@H]1[C@H](C)C=C[C@]2(C(=O)O)CC[C@]3(C)C(=CC[C@H]4[C@]5(C)[C@H]([C@H](O)C[C@]43C)C(C)(C)[C@@H](O)[C@H](O)[C@@H]5O)[C@H]12												inhibition zone (IZ) (Staphylococcus aureus [5]): 24 mm
CC1(C)CC[C@]2(C(=O)O)CC[C@]3(C)C(=CC[C@@H]4[C@@]5(C)[C@H]6O[C@H]6[C@H](O)C(C)(C)[C@@H]5CC[C@]43C)[C@@H]2C1	Active	Active	Active									growth inhibition (GI) (Bacillus spizizenii [6]): Dose-dependent effect
CC1(C)CC[C@]2(C(=O)O)CC[C@]3(C)C(=CC[C@@H]4[C@@]5(C)CC[C@H](O)C(C)(C)[C@@H]5CC[C@]43C)[C@@H]2C1	Active	Active	Active	Active	Active	Active						Activity (Streptomyces scabiei [7]): inactive; Activity (Streptomyces scabiei [11]): Active; Activity (Streptomyces scabiei [12]): Active; Activity (Streptomyces scabiei [13]): Active; Activity (Streptomyces scabiei [14]): Active; Activity (Streptomyces scabiei [15]): Active
CCOC(=O)[C@]12CCC(C)(C)C[C@H]1C1=CC[C@@H]3[C@@]4(C)[C@@H](O)[C@H](O)[C@H](O)C(C)(C)[C@@H]4CC[C@@]3(C)[C@]1(C)CC2				Active	Active	Active	> 95	> 95	64 (≈ 33.1 µg/mL)	1 (≈ 0.517 µg/mL)	≥ 100	Ratio (Staphylococcus aureus [19]): 2; growth inhibition (GI) (Staphylococcus aureus [20]): Dose-dependent effect; Activity (Staphylococcus aureus [21]): Active
CC(C)OC(=O)[C@]12CC[C@@H](C)[C@H](C)[C@H]1C1=CC[C@@H]3[C@@]4(C)[C@@H](O)[C@H](O)[C@H](O)C(C)(C)[C@@H]4CC[C@@]3(C)[C@]1(C)CC2				Active	Active	Active	> 95	> 95	4 (≈ 2.12 µg/mL)	1 (≈ 0.531 µg/mL)	≥ 100	Ratio (Staphylococcus aureus [19]): 4; growth inhibition (GI) (Staphylococcus aureus [20]): Dose-dependent effect; fold change (FC) (Bacillus spizizenii [22]): 2.5; Activity (Bacillus spizizenii [23]): Active; Activity (Bacillus spizizenii [24]): Active; Activity (Bacillus spizizenii [25]): Active; Activity (Bacillus spizizenii [26]): inactive; Activity (Staphylococcus aureus [27]): Active
C[C@H]1[C@H](C)CC[C@]2(C(=O)OCc3ccccc3)CC[C@]3(C)C(=CC[C@@H]4[C@@]5(C)[C@H]6O[C@H]6[C@@H](O)C(C)(C)[C@@H]5CC[C@]43C)[C@H]12	Active	Active	Active									growth inhibition (GI) (Escherichia coli [4]): Active; growth inhibition (GI) (Ralstonia solanacearum): Active
CC1(C)[C@@H](O)C[C@H](O)[C@]2(C)[C@H]3CC=C4[C@@H]5C[C@](C)(C(=O)O)CC[C@]5(C(=O)O)CC[C@@]4(C)[C@]3(C)CC[C@@H]12												MIC (Staphylococcus aureus [28]): 125 µg/mL (≈ 249 µM); MIC (Escherichia coli [29]): 16 µg/mL (≈ 31.8 µM)
CCCOC(=O)[C@]12CC[C@@H](C)[C@H](C)[C@H]1C1=CC[C@@H]3[C@@]4(C)[C@@H](O)[C@H](O)[C@H](O)C(C)(C)[C@@H]4CC[C@@]3(C)[C@]1(C)CC2							> 95	> 95	32 (≈ 17 µg/mL)	8 (≈ 4.25 µg/mL)	≥ 100	
C[C@@]1(C(=O)O)CC[C@]2(C(=O)O)CC[C@]3(C)C(=CC[C@@H]4[C@@]5(C)[C@@H](O)C[C@H](O)[C@](C)(CO)[C@@H]5CC[C@]43C)[C@@H]2C1												MIC (Staphylococcus aureus [28]): 63 µg/mL (≈ 121 µM); MIC (Escherichia coli [29]): 16 µg/mL (≈ 30.8 µM)
CCCOC(=O)[C@]12CCC(C)(C)C[C@H]1C1=CC[C@@H]3[C@@]4(C)[C@@H](O)[C@H](O)[C@H](O)C(C)(C)[C@@H]4CC[C@@]3(C)[C@]1(C)CC2							> 95	> 95	64 (≈ 34 µg/mL)	2 (≈ 1.06 µg/mL)	≥ 100	growth inhibition (GI) (Staphylococcus aureus [20]): Dose-dependent effect
CCOC(=O)[C@]12CC[C@@H](C)[C@H](C)[C@H]1C1=CC[C@@H]3[C@@]4(C)[C@@H](O)[C@H](O)[C@H](O)C(C)(C)[C@@H]4CC[C@@]3(C)[C@]1(C)CC2				Active	Active	Active	> 95	> 95	64 (≈ 33.1 µg/mL)	2 (≈ 1.03 µg/mL)	≥ 100	Ratio (Staphylococcus aureus [19]): 2; Activity (Staphylococcus aureus [27]): Active; Activity (Staphylococcus aureus [21]): Active
CC1(C)CC[C@]2(C(=O)OCc3ccc(Cl)cc3)CC[C@]3(C)C(=CC[C@@H]4[C@@]5(C)[C@@H](O)[C@H](O)[C@H](O)C(C)(C)[C@@H]5CC[C@]43C)[C@@H]2C1			inactive						≥ 100	64 (≈ 39.2 µg/mL)	≥ 100	
COC(=O)[C@]12CC[C@@H](C)[C@H](C)[C@H]1C1=CC[C@@H]3[C@@]4(C)[C@@H](O)[C@H](O)[C@H](O)C(C)(C)[C@@H]4CC[C@@]3(C)[C@]1(C)CC2							> 95	> 95	32 (≈ 16.1 µg/mL)	8 (≈ 4.02 µg/mL)	64 (≈ 32.2 µg/mL)	
C[C@H]1[C@H](C)CC[C@]2(C(=O)O)CC[C@]3(C)C(=CC[C@@H]4[C@@]5(C)CC[C@H](O)C(C)(C)[C@@H]5CC[C@]43C)[C@H]12	Active	Active	Active	Active	Active	Active						Activity (Bacillus spizizenii [22]): Active; Activity (Bacillus spizizenii [23]): Active; Activity (Bacillus spizizenii [24]): Active; Activity (Bacillus spizizenii [25]): Active; Activity (Bacillus spizizenii [26]): Active
